# Reference: the supplement of paper PMC8671470
# Test system: MV4-11
# Experiment: cell viability (% survival relative to DMSO control, bortezomib = 0%); higher = less cytotoxic
# Settings: 10000 nM; 72 h
# How it was run: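 After 72 h at 37 °C with 5% CO2, cell viability in 384-well plates was measured by CellTiter-Glo luminescence. The plates held compounds pre-printed at 1, 10, 100, 1000 or 10000 nM in duplicate, and cells from 10 AML and 5 CML lines seeded at densities titrated to linear growth. Percent survival is the duplicate mean, normalised to vehicle as 100% and a 10 µM positive control as 0%.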
row,SMILES,cell viability
1,CN(C)c1cc(NC(=O)CNC(C)(C)C)c(O)c2c1C[C@H]1C[C@H]3[C@H](N(C)C)C(=O)C(C(N)=O)C(=O)[C@@]3(O)C(=O)C1C2=O (stereo partly drawn) [Tigecycline],93.2%
2,COc1ccc2c(C(=S)N(C)CC(=O)O)cccc2c1C(F)(F)F [Tolrestat],86.3%
3,CCC(=O)N1CCN(c2ccc(-n3c(=O)ccc4cnc5ccc(-c6cnc7ccccc7c6)cc5c43)cc2C(F)(F)F)CC1 [Torin1],11.1%
4,NC(=O)c1cccc(-c2cccc(OC(=O)NC3CCCCC3)c2)c1 [URB-597],89.5%
5,O=C1O[C@H]([C@@H](O)CO)C(O)=C1O [Vitamin C (ascorbate)],92.1%

# Test system: myeloid leukemia patient primary cells Pat.10
# Experiment: area under dose-response curve (viability, 1 nM-10 uM) (fraction (0-1)); higher = more sensitive
# Settings: 72 h
# Description: (§1)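 AUC (0–1, higher = more sensitive) of the 5-point dose–response (1 nM–10 µM, 72 h, CellTiter-Glo) in primary AML/CML patient mononuclear cells. 0.030103 is the floor for inactive compounds.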
row,SMILES,area under dose-response curve
1,O=C(C1CC1)N1CC[C@@H](C=C2NNC(=O)N2c2ccc(-c3ccc4occc4c3)cc2)C1,0.082
2,C[C@H](NC(=O)c1sccc1OCc1ccc(Cl)cc1)c1ccccc1,0.13
3,O=C(O)C1=CC(=C(c2ccc(O)c(C(=O)O)c2)c2ccc(O)c(C(=O)O)c2)C=CC1=O [Aurintricarboxylic acid],< 0.0301
4,COC(=O)[C@]12CCC(C)(C)C[C@H]1[C@H]1C(=O)C=C3[C@@]4(C)C=C(C#N)C(=O)C(C)(C)[C@@H]4CC[C@@]3(C)[C@]1(C)CC2 [Bardoxolone methyl],0.589
5,Nc1nc(Cl)nc2c1ncn2[C@H]1C[C@H](O)[C@@H](CO)O1 [Cladribine],0.768
6,O=C1c2cc([N+](=O)[O-])ccc2-n2c1nc1ccccc1c2=O [GNF-Pf-3777],0.27
7,C=C(C)[C@H]1Cc2c(ccc3c2O[C@@H]2COc4cc(OC)c(OC)cc4[C@@H]2C3=O)O1 [Rotenone],0.411
8,Oc1ccc(Nc2nc(-c3ccc(Cl)cc3)cs2)cc1 [SKI II],0.291
9,CCC(=O)N1CCN(c2ccc(-n3c(=O)ccc4cnc5ccc(-c6cnc7ccccc7c6)cc5c43)cc2C(F)(F)F)CC1 [Torin1],0.477

# Test system: myeloid leukemia patient primary cells Pat.11
# Experiment: as above
# Settings: 72 h
# Description: as §1
row,SMILES,area under dose-response curve
1,O=C(C1CC1)N1CC[C@@H](C=C2NNC(=O)N2c2ccc(-c3ccc4occc4c3)cc2)C1,< 0.0301
2,C[C@H](NC(=O)c1sccc1OCc1ccc(Cl)cc1)c1ccccc1,< 0.0301
3,O=C(O)C1=CC(=C(c2ccc(O)c(C(=O)O)c2)c2ccc(O)c(C(=O)O)c2)C=CC1=O [Aurintricarboxylic acid],< 0.0301
4,COC(=O)[C@]12CCC(C)(C)C[C@H]1[C@H]1C(=O)C=C3[C@@]4(C)C=C(C#N)C(=O)C(C)(C)[C@@H]4CC[C@@]3(C)[C@]1(C)CC2 [Bardoxolone methyl],0.111
5,Cc1c(-c2ccc(-c3ccccc3F)cc2)nc2ccc(F)cc2c1C(=O)O [Brequinar],< 0.0301
6,C=C(C)[C@H]1Cc2c(ccc3c2O[C@@H]2COc4cc(OC)c(OC)cc4[C@@H]2C3=O)O1 [Rotenone],< 0.0301
7,Oc1ccc(Nc2nc(-c3ccc(Cl)cc3)cs2)cc1 [SKI II],< 0.0301
8,CCC(=O)N1CCN(c2ccc(-n3c(=O)ccc4cnc5ccc(-c6cnc7ccccc7c6)cc5c43)cc2C(F)(F)F)CC1 [Torin1],0.183

# Test system: myeloid leukemia patient primary cells Pat.12
# Experiment: as above
# Settings: 72 h
# Description: as §1
row,SMILES,area under dose-response curve
1,O=C(C1CC1)N1CC[C@@H](C=C2NNC(=O)N2c2ccc(-c3ccc4occc4c3)cc2)C1,< 0.0301
2,C[C@H](NC(=O)c1sccc1OCc1ccc(Cl)cc1)c1ccccc1,< 0.0301
3,O=C(O)C1=CC(=C(c2ccc(O)c(C(=O)O)c2)c2ccc(O)c(C(=O)O)c2)C=CC1=O [Aurintricarboxylic acid],< 0.0301
4,COC(=O)[C@]12CCC(C)(C)C[C@H]1[C@H]1C(=O)C=C3[C@@]4(C)C=C(C#N)C(=O)C(C)(C)[C@@H]4CC[C@@]3(C)[C@]1(C)CC2 [Bardoxolone methyl],0.0322
5,Cc1c(-c2ccc(-c3ccccc3F)cc2)nc2ccc(F)cc2c1C(=O)O [Brequinar],< 0.0301
6,Nc1nc(Cl)nc2c1ncn2[C@H]1C[C@H](O)[C@@H](CO)O1 [Cladribine],0.438
7,O=C1c2cc([N+](=O)[O-])ccc2-n2c1nc1ccccc1c2=O [GNF-Pf-3777],< 0.0301
8,C=C(C)[C@H]1Cc2c(ccc3c2O[C@@H]2COc4cc(OC)c(OC)cc4[C@@H]2C3=O)O1 [Rotenone],0.0808
9,Oc1ccc(Nc2nc(-c3ccc(Cl)cc3)cs2)cc1 [SKI II],0.0339
10,CCC(=O)N1CCN(c2ccc(-n3c(=O)ccc4cnc5ccc(-c6cnc7ccccc7c6)cc5c43)cc2C(F)(F)F)CC1 [Torin1],< 0.0301

# Test system: myeloid leukemia patient primary cells Pat.13
# Experiment: as above
# Settings: 72 h
# Description: as §1
row,SMILES,area under dose-response curve
1,O=C(C1CC1)N1CC[C@@H](C=C2NNC(=O)N2c2ccc(-c3ccc4occc4c3)cc2)C1,< 0.0301
2,C[C@H](NC(=O)c1sccc1OCc1ccc(Cl)cc1)c1ccccc1,0.0406
3,O=C(O)C1=CC(=C(c2ccc(O)c(C(=O)O)c2)c2ccc(O)c(C(=O)O)c2)C=CC1=O [Aurintricarboxylic acid],< 0.0301
4,COC(=O)[C@]12CCC(C)(C)C[C@H]1[C@H]1C(=O)C=C3[C@@]4(C)C=C(C#N)C(=O)C(C)(C)[C@@H]4CC[C@@]3(C)[C@]1(C)CC2 [Bardoxolone methyl],0.397
5,Cc1c(-c2ccc(-c3ccccc3F)cc2)nc2ccc(F)cc2c1C(=O)O [Brequinar],< 0.0301
6,Nc1nc(Cl)nc2c1ncn2[C@H]1C[C@H](O)[C@@H](CO)O1 [Cladribine],0.7
7,O=C1c2cc([N+](=O)[O-])ccc2-n2c1nc1ccccc1c2=O [GNF-Pf-3777],0.115
8,C=C(C)[C@H]1Cc2c(ccc3c2O[C@@H]2COc4cc(OC)c(OC)cc4[C@@H]2C3=O)O1 [Rotenone],0.391
9,Oc1ccc(Nc2nc(-c3ccc(Cl)cc3)cs2)cc1 [SKI II],0.0533
10,CCC(=O)N1CCN(c2ccc(-n3c(=O)ccc4cnc5ccc(-c6cnc7ccccc7c6)cc5c43)cc2C(F)(F)F)CC1 [Torin1],0.218

# Test system: myeloid leukemia patient primary cells Pat.14
# Experiment: as above
# Settings: 72 h
# Description: as §1
row,SMILES,area under dose-response curve
1,O=C(C1CC1)N1CC[C@@H](C=C2NNC(=O)N2c2ccc(-c3ccc4occc4c3)cc2)C1,< 0.0301
2,C[C@H](NC(=O)c1sccc1OCc1ccc(Cl)cc1)c1ccccc1,0.121
3,O=C(O)C1=CC(=C(c2ccc(O)c(C(=O)O)c2)c2ccc(O)c(C(=O)O)c2)C=CC1=O [Aurintricarboxylic acid],< 0.0301
4,COC(=O)[C@]12CCC(C)(C)C[C@H]1[C@H]1C(=O)C=C3[C@@]4(C)C=C(C#N)C(=O)C(C)(C)[C@@H]4CC[C@@]3(C)[C@]1(C)CC2 [Bardoxolone methyl],0.433
5,Cc1c(-c2ccc(-c3ccccc3F)cc2)nc2ccc(F)cc2c1C(=O)O [Brequinar],0.142
6,Nc1nc(Cl)nc2c1ncn2[C@H]1C[C@H](O)[C@@H](CO)O1 [Cladribine],0.616
